Data taken from publication PMC10303271, “Synthesis and Receptor Binding Studies of α5 GABAAR Selective Novel Imidazodiazepines Targeted for Psychiatric and Cognitive Disorders” (Molecules, 2023).
Like-named read-outs stand apart in the source and are kept apart here.

Assays:
H1 = molecular target: T1, H1 (Homo sapiens, UniProt P35367); assay: PDSP primary binding H1; settings: primary binding, 10,000 nM; last figure of the line = mean of the 4 before it; read-out: H1, PDSP raw data, mean
T1 construct: purchased NIMH Psychoactive Drug Screening Program (PDSP)
T1 sequence (P35367 whole entry): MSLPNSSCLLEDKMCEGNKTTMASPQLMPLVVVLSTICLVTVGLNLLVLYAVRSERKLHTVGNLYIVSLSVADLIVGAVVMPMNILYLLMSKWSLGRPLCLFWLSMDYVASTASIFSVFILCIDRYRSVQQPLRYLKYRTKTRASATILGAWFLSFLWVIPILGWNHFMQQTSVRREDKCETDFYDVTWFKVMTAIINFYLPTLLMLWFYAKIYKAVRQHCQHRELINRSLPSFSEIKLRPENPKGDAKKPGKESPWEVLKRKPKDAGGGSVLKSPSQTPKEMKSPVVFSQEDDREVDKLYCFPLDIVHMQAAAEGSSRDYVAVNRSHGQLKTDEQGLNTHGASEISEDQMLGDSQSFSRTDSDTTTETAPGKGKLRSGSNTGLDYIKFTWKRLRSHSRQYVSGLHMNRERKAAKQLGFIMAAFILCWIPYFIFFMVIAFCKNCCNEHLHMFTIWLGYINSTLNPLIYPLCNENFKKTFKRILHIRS
Method: (§1) To determine if any off-target receptor-binding effects are present, all the novel ligands were sent to the National Institute of Mental Health (NIMH), Psychoactive Drug Screening Program (PDSP). The ligands were screened over a panel of 47 receptors, ion channels, and transporters to determine any other possible interactions with […]. The hERG-binding was also determined. […] No binding of the test compounds to calcium channels was observed. […] It is necessary to screen the compounds for hERG-binding during the early process of drug discovery. The unintentional binding of many drugs to hERG can cause blockade of hERG K+ channels in the heart, which can cause many side effects including cardiac arrhythmias and sudden death. […] All of the α5 imidazodiazepines were tested for hERG-binding.
(§2) The NIMH PDSP assay protocol book [https://kidbdev.med.unc.edu/databases/PDSP%20Protocols%20II%202013-03-28.pdf accessed on 23 April 2023]. describes the protocols for primary and secondary radio-ligand binding assays. These assays were carried out in a final volume of 125 µL per well in the appropriate binding buffer.
(§3) The binding of a ligand to a receptor, ion channel, or transporter was determined in the […] of 10 µM of the appropriate reference compound. […] Plates were incubated in the dark for 90 min at rt, and the reactions were stopped by vacuum filtration onto 0.3% polyethyleneimine (PEI) soaked 96-well filter mats using a 96-well Filtermateharvester. This was followed by three washes with cold PBS buffer. Radioactivity was then counted on a Microbeta counter. Nonlinear regression was used to analyze the data with N = 6 replicates.

NTS1 = molecular target: T2, NTS1 (Homo sapiens, UniProt P30989); assay: PDSP primary binding NTS1; settings: primary binding, 10,000 nM; last figure of the line = mean of the 4 before it; read-out: NTS1, PDSP raw data, mean
T2 construct: purchased NIMH Psychoactive Drug Screening Program (PDSP)
T2 sequence (P30989 whole entry): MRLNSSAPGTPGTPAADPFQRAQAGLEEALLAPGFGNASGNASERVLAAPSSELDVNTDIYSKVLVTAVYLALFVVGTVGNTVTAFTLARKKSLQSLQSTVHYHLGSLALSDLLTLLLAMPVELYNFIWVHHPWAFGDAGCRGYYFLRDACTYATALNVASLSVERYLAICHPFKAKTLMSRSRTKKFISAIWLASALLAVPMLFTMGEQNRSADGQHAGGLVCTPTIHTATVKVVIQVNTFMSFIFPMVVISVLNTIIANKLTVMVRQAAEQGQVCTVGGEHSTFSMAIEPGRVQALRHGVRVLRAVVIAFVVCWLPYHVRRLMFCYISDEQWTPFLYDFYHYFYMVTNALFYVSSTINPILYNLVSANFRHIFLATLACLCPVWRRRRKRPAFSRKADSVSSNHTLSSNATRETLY
Method: as §1, §2, §3

NR2B = assay: PDSP primary binding NR2B; settings: primary binding, 10,000 nM; last figure of the line = mean of the 4 before it
Method: as §1, §2, §3

Sigma 2 = assay: PDSP primary binding Sigma 2; settings: primary binding, 10,000 nM; last figure of the line = mean of the 4 before it
Method: as §1, §2, §3

Alpha3Beta4 = molecular target: T3, Alpha3Beta4 (Rattus norvegicus, UniProt P04757+P12392); assay: PDSP primary binding Alpha3Beta4; settings: primary binding, 10,000 nM; last figure of the line = mean of the 4 before it; read-out: Alpha3Beta4, PDSP raw data, mean
T3 construct: purchased NIMH Psychoactive Drug Screening Program (PDSP)
T3 sequence (P04757 26-499): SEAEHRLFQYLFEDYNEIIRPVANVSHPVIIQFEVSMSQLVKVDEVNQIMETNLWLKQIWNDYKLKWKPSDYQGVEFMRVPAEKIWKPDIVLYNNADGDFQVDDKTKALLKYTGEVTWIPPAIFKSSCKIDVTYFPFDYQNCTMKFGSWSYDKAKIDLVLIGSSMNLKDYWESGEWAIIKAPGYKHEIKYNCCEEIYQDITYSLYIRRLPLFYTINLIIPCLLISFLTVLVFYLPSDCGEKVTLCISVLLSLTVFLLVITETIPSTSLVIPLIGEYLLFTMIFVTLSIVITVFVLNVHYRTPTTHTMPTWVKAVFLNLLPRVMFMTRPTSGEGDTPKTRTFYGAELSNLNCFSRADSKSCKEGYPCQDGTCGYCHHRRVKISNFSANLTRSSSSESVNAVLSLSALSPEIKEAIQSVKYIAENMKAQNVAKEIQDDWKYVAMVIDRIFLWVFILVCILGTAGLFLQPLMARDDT
T3 sequence (P12392 21-495): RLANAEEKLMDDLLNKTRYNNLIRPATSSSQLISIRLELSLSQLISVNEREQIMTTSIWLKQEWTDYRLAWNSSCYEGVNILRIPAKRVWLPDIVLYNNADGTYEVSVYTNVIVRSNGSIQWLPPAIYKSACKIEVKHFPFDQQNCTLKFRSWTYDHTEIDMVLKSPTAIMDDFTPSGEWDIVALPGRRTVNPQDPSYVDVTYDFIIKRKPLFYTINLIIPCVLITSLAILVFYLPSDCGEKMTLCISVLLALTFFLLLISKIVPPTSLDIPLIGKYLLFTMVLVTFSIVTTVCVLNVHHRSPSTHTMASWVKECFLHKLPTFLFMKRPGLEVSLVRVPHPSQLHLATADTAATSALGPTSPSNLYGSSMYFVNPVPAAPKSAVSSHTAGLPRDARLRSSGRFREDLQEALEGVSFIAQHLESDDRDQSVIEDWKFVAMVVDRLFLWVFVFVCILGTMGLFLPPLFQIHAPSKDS
Method: as §1, §2, §3

5-HT1B = molecular target: T4, 5-HT1B (Homo sapiens, UniProt P28222); assay: PDSP primary binding 5-HT1B; settings: 1.5 h; primary binding, 10,000 nM; last figure of the line = mean of the 4 before it; read-out: 5-HT1B, PDSP raw data, mean
T4 construct: purchased NIMH Psychoactive Drug Screening Program (PDSP)
T4 sequence (P28222 whole entry): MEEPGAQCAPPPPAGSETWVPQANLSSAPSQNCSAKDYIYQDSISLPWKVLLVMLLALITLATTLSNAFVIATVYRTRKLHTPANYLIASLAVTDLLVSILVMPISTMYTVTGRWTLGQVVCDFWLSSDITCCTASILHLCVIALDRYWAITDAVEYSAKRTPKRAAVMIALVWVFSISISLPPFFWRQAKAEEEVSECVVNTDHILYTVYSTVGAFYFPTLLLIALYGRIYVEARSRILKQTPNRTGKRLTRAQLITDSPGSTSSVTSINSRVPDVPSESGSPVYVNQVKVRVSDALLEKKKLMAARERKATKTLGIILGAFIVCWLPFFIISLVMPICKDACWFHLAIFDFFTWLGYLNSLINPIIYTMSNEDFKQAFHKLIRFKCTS
Method: as §1, §2, §3

NET = molecular target: T5, NET (Homo sapiens, UniProt P23975); assay: PDSP primary binding NET; settings: primary binding, 10,000 nM; last figure of the line = mean of the 4 before it; read-out: NET, PDSP raw data, mean
T5 construct: purchased NIMH Psychoactive Drug Screening Program (PDSP)
T5 sequence (P23975 whole entry): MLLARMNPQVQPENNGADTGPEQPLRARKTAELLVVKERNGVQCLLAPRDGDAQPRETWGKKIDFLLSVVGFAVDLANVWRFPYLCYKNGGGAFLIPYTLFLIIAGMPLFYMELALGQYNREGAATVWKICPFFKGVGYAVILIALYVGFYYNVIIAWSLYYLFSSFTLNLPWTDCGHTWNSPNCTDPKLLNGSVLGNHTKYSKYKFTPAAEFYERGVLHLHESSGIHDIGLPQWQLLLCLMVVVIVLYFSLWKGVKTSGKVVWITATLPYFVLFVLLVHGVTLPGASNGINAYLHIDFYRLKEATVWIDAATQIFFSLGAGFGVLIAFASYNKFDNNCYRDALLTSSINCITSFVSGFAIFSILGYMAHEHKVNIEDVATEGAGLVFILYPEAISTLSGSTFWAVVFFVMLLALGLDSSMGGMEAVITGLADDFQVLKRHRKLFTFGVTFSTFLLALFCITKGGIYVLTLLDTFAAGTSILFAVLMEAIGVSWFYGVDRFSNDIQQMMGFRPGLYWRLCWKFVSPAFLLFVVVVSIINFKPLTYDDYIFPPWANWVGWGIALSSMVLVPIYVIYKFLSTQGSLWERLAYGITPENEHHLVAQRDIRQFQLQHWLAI
Method: as §1, §2, §3

V1A = molecular target: T6, V1A (Homo sapiens, UniProt P37288); assay: PDSP primary binding V1A; settings: primary binding, 10,000 nM; last figure of the line = mean of the 4 before it; read-out: V1A, PDSP raw data, mean
T6 construct: purchased NIMH Psychoactive Drug Screening Program (PDSP)
T6 sequence (P37288 whole entry): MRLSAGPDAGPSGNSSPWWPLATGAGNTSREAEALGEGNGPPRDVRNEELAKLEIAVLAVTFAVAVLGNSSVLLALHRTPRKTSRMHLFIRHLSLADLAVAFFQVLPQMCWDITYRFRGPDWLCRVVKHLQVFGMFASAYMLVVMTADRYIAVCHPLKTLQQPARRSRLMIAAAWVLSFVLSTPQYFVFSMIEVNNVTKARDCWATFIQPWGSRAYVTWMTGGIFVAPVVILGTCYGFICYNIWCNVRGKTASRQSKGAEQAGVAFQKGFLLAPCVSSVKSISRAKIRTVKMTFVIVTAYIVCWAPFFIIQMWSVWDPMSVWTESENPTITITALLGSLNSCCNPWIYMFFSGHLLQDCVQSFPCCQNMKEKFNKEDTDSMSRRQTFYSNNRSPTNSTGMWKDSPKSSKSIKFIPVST
Method: as §1, §2, §3

[1] = molecular target: peripheral benzodiazepine receptors (PBR) (Rattus norvegicus, UniProt P16257); assay: PDSP radioligand binding at PBR
Sequence of peripheral benzodiazepine receptors (PBR) (P16257 whole entry): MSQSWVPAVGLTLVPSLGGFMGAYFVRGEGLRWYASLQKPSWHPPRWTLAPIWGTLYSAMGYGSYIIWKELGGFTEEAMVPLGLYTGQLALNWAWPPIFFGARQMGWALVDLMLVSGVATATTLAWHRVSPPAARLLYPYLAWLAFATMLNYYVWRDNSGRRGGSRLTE
Text: The compounds were also screened at PDSP to determine any binding with peripheral benzodiazepine receptors (PBR). A number of biological processes are associated with PBR. The most prevalent are transportation of anions for mitochondrial transmembrane potential, biosynthesis of heme, regulation of neurological damage, proliferation, cell death (apoptosis), as well as regulation of steroidogenesis. The test compounds were screened in the primary binding assay to determine the % inhibition at PBR. […] These compounds were then subjected to a secondary screening to determine the Ki (nM) value for PBR receptors.
as §2, §3

[2] = molecular target: kappa opioid receptors (KOR) (Homo sapiens, UniProt P41145); assay: PDSP radioligand binding at KOR; settings: for inhibition at 10 µM: 1.5 h
Sequence of kappa opioid receptors (KOR) (P41145 whole entry): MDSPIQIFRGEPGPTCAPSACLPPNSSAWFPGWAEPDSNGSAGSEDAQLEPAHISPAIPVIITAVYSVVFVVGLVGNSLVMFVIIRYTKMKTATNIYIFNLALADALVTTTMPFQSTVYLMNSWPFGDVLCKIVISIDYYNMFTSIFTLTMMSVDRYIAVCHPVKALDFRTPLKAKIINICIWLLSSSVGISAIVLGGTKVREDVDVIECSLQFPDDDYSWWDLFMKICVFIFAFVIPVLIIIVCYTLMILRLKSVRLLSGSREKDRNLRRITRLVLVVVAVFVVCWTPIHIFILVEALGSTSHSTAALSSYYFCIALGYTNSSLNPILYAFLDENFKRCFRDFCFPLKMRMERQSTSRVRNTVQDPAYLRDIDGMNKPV
Text: Opioid receptors are a family of inhibitory G-coupled protein receptors where opioids act as the ligand. The kappa opioid receptors (KOR), µ and δ opioid receptors (MOR and DOR), and nociception opioid receptor (NOP) fall under the family of opioids receptors. It has been reported that oxadiazole imidazodiazepines can mediate analgesic and anti-inflammatory properties mediated also by the κ opioid receptor (KOR). The binding at KOR is usually silent. The affinities of the test compounds for KOR, DOR, and MOR were determined using radioligand binding assays at a screening concentration of 10,000 nM in collaboration with the National Institute of Mental Health’s Psychoactive Drug Screening Program (PDSP), as mentioned before. Concentration-dependent experiments were conducted to determine Ki values for the compounds that exceeded more than 50% radioligand displacement in primary binding assays.
as §2, §3

AMPA = assay: PDSP primary binding AMPA; settings: primary binding, 10,000 nM; last figure of the line = mean of the 4 before it
Method: as §1, §2, §3

D4 = molecular target: T7, D4 (Homo sapiens, UniProt P21917); assay: PDSP primary binding D4; settings: 1.5 h; primary binding, 10,000 nM; last figure of the line = mean of the 4 before it; read-out: D4, PDSP raw data, mean
T7 construct: purchased NIMH Psychoactive Drug Screening Program (PDSP)
T7 sequence (P21917 1-419): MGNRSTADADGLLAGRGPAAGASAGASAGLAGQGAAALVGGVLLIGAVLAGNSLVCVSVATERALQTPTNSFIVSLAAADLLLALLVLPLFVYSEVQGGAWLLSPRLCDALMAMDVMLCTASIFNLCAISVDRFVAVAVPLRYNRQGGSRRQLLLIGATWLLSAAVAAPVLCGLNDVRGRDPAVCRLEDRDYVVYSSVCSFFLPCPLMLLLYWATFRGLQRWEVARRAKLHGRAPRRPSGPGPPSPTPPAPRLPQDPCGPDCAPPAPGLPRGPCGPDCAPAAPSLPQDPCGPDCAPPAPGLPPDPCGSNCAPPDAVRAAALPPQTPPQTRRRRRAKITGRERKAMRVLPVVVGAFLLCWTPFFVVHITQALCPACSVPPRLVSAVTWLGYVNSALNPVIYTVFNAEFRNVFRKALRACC
Method: as §1, §2, §3

H3 = molecular target: T8, H3 (Homo sapiens, UniProt Q9Y5N1); assay: PDSP primary binding H3; settings: primary binding, 10,000 nM; last figure of the line = mean of the 4 before it; read-out: H3, PDSP raw data, mean
T8 construct: purchased NIMH Psychoactive Drug Screening Program (PDSP)
T8 sequence (Q9Y5N1 whole entry): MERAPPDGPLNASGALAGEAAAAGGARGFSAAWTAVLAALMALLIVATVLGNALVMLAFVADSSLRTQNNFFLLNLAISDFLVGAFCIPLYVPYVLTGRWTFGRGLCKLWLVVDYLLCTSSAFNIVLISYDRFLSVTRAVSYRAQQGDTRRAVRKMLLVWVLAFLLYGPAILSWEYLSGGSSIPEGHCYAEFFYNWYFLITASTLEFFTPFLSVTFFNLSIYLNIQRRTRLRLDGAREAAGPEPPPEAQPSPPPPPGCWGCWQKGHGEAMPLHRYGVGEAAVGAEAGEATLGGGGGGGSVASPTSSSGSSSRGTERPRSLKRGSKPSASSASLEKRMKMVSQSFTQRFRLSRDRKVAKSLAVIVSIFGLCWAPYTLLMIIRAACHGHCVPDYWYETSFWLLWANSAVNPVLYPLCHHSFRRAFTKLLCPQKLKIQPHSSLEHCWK
Method: as §1, §2, §3

[3] = 1.5 h, primary binding, 10,000 nM, last figure of the line = mean of the 4 before it, some tables list PBR twice, read-out: PBR, PDSP raw data, mean
[4] = at 10,000 nM, N = 5, read-out: Binding Affinity at PBR % Inhibition (Primary)
[5] = at 10,000 nM, N = 5, [3H]-U69593 0.83 nM, read-out: Primary Binding %KOR
[6] = primary binding, 10,000 nM, last figure of the line = mean of the 4 before it, read-out: KOR, PDSP raw data, mean

Compound	inhibition at 10 µM (H1) [%]	inhibition at 10 µM (NTS1) [%]	NR2B, PDSP raw data, mean (NR2B) [%]	Sigma 2, PDSP raw data, mean (Sigma 2) [%]	inhibition at 10 µM (Alpha3Beta4) [%]	inhibition at 10 µM (5-HT1B) [%]	inhibition at 10 µM (NET) [%]	inhibition at 10 µM (V1A) [%]	Ki [1] [nM]	inhibition at 10 µM [1, 3] [%]	inhibition at 10 µM [1, 4] [%]	Ki [2] [nM]	inhibition at 10 µM [2, 5] [%]	inhibition at 10 µM [2, 6] [%]	AMPA, PDSP raw data, mean (AMPA) [%]	inhibition at 10 µM (D4) [%]	inhibition at 10 µM (H3) [%]
CCc1noc(-c2ncn3c2[C@@H](C)N=C(c2ccccc2F)c2cc(Cl)ccc2-3)n1 [Compound 36, (R)-5-(8-Chloro-6-(2′-fluorophenyl)-4-methyl-4H-benzo[f]imidazo[1,5-a][1,4]diazepin-3-yl)-3-ethyl-1,2,4-oxadiazole]	7.7	-16.9	14.42	81.41	15.6	3.67	-2.36	27.6	982 ± 405	57.2	57.2 ± 10.3	104 ± 7.58	96.4 ± 3	96.4	-24.14	-4.5	-0.81
CC(C)c1noc(-c2ncn3c2[C@@H](C)N=C(c2ccccc2F)c2cc(Cl)ccc2-3)n1 [Compound 37, (R)-5-(8-Chloro-6-(2′-fluorophenyl)-4-methyl-4H-benzo[f]imidazo[1,5-a][1,4]diazepin-3-yl)-3-isopropyl-1,2,4-oxadiazole]	59	-16.3	34.46	76.17	18.8	10.4	9.04	-10.1	838 ± 135	89.6	88 ± 1.32	46.3 ± 4.93	99.2 ± 1.75	99.2	20.59	-10.1	6.42
C[C@H]1N=C(c2ccccc2F)c2cc(Cl)ccc2-n2cnc(-c3nc(C4CC4)no3)c21 [Compound 38, (R)-5-(8-Chloro-6-(2′-fluorophenyl)-4-methyl-4H-benzo[f]imidazo[1,5-a][1,4]diazepin-3-yl)-3-cyclopropyl-1,2,4-oxadiazole]	58.4	-13.2	31.49	80.86	12.4	8.75	-0.22	4.3	617 ± 27.1	89.5	90 ± 2.13	82.2 ± 2.43	98.9 ± 1.6	98.9	21.42	-3.44	3.21
CCc1noc(-c2ncn3c2CN=C(c2ccccc2F)c2cc(C4CC4)ccc2-3)n1 [Compound 44, 5-(8-Cyclopropyl-6-(2′-fluorophenyl)-4H-benzo[f]imidazo[1,5-a][1,4]diazepin-3-yl)-3-ethyl-1,2,4-oxadiazole]	16.3	-62.2	21.74	74.98	7.56	62.1	4.9	21.3	–	71	–	207 ± 33.1	96.3 ± 2.29	96.3	-9.33	-4.07	7.26
CCc1noc(-c2ncn3c2[C@@H](C)N=C(c2ccccc2F)c2cc(C4CC4)ccc2-3)n1 [Compound 46, (R)-5-(8-Cyclopropyl-6-(2′-fluorophenyl)-4-methyl-4H-benzo[f]imidazo[1,5-a][1,4]diazepin-3-yl)-3-ethyl-1,2,4-oxadiazole]	33.7	-29.8	32.88	89.78	10.4	15.1	24.3	-6.74	627.3 ± 5.72	86.4	86.4 ± 6.35	–	–	91.3	0.81	10.6	-6.39
